Laboratory results published in paper PMC10408569, “Recruitment of hexahydroquinoline as anticancer scaffold targeting inhibition of wild and mutants EGFR (EGFR^WT, EGFR^T790M, and EGFR^L858R)” (Journal of Enzyme Inhibition and Medicinal Chemistry, 2023).

Key:
CCRF-CEM = assay: NCI-60 anticancer screening (SRB); type: cell-based; conditions: Homo sapiens, leukemia, one dose 10 μM, read-out: Growth Inhibition Percentage (GI %)
HL-60(TB) = assay: NCI-60 anticancer screening (SRB); type: cell-based; conditions: Homo sapiens, leukemia, one dose 10 μM, read-out: Growth Inhibition Percentage (GI %)
MOLT-4 = assay: NCI-60 anticancer screening (SRB); type: cell-based; conditions: Homo sapiens; MOLT-4, leukemia; one dose 10 μM; read-out: Growth Inhibition Percentage (GI %)
A549/ATCC = assay: NCI-60 anticancer screening (SRB); type: cell-based; conditions: Homo sapiens; A549/ATCC, NSC lung cancer; one dose 10 μM; read-out: Growth Inhibition Percentage (GI %)
NCI-H322M = assay: NCI-60 anticancer screening (SRB); type: cell-based; conditions: Homo sapiens, NSC lung cancer, one dose 10 μM, read-out: Growth Inhibition Percentage (GI %)
COLO 205 = assay: NCI-60 anticancer screening (SRB); type: cell-based; conditions: Homo sapiens; COLO 205, colon cancer; one dose 10 μM; read-out: Growth Inhibition Percentage (GI %)
HCC-2998 = assay: NCI-60 anticancer screening (SRB); type: cell-based; conditions: Homo sapiens; HCC-2998, colon cancer; one dose 10 μM; read-out: Growth Inhibition Percentage (GI %)
HCT-15 = assay: NCI-60 anticancer screening (SRB); type: cell-based; conditions: Homo sapiens; HCT-15, colon cancer; one dose 10 μM; read-out: Growth Inhibition Percentage (GI %)
KM 12 = assay: NCI-60 anticancer screening (SRB); type: cell-based; conditions: Homo sapiens, KM12; KM 12, colon cancer; one dose 10 μM; read-out: Growth Inhibition Percentage (GI %)
SW-620 = assay: NCI-60 anticancer screening (SRB); type: cell-based; conditions: Homo sapiens; SW-620, colon cancer; one dose 10 μM; read-out: Growth Inhibition Percentage (GI %)
MDA-MB-435 = assay: NCI-60 anticancer screening (SRB); type: cell-based; conditions: Homo sapiens; MDA-MB-435, melanoma; one dose 10 μM; read-out: Growth Inhibition Percentage (GI %)
SK-MEL-28 = assay: NCI-60 anticancer screening (SRB); type: cell-based; conditions: Homo sapiens; SK-MEL-28, melanoma; one dose 10 μM; read-out: Growth Inhibition Percentage (GI %)
UACC-62 = assay: NCI-60 anticancer screening (SRB); type: cell-based; conditions: Homo sapiens; UACC-62, melanoma; one dose 10 μM; read-out: Growth Inhibition Percentage (GI %)
OVCAR-3 = assay: NCI-60 anticancer screening (SRB); type: cell-based; conditions: Homo sapiens; OVCAR-3, ovarian cancer; one dose 10 μM; read-out: Growth Inhibition Percentage (GI %)
OVCAR-4 = assay: NCI-60 anticancer screening (SRB); type: cell-based; conditions: Homo sapiens; OVCAR-4, ovarian cancer; one dose 10 μM; read-out: Growth Inhibition Percentage (GI %)
OVCAR-8 = assay: NCI-60 anticancer screening (SRB); type: cell-based; conditions: Homo sapiens; OVCAR-8, ovarian cancer; one dose 10 μM; read-out: Growth Inhibition Percentage (GI %)
NCI/ADR-RES = assay: NCI-60 anticancer screening (SRB); type: cell-based; conditions: Homo sapiens, ovarian cancer, one dose 10 μM, read-out: Growth Inhibition Percentage (GI %)
SK-OV-3 = assay: NCI-60 anticancer screening (SRB); type: cell-based; conditions: Homo sapiens; SK-OV-3, ovarian cancer; one dose 10 μM; read-out: Growth Inhibition Percentage (GI %)
RXF 393 = assay: NCI-60 anticancer screening (SRB); type: cell-based; conditions: Homo sapiens; RXF 393, renal cancer; one dose 10 μM; read-out: Growth Inhibition Percentage (GI %)
TK-10 = assay: NCI-60 anticancer screening (SRB); type: cell-based; conditions: Homo sapiens; TK-10, renal cancer; one dose 10 μM; read-out: Growth Inhibition Percentage (GI %)
UO-31 = assay: NCI-60 anticancer screening (SRB); type: cell-based; conditions: Homo sapiens; UO-31, renal cancer; one dose 10 μM; read-out: Growth Inhibition Percentage (GI %)
PC-3 = assay: NCI-60 anticancer screening (SRB); type: cell-based; conditions: Homo sapiens; PC-3, prostate cancer; one dose 10 μM; read-out: Growth Inhibition Percentage (GI %)
MCF7 = assay: NCI-60 anticancer screening (SRB); type: cell-based; conditions: Homo sapiens; MCF7, breast cancer; one dose 10 μM; read-out: Growth Inhibition Percentage (GI %)
MDA-MB-231 = assay: NCI-60 anticancer screening (SRB); type: cell-based; conditions: Homo sapiens; MDA-MB-231, breast cancer; one dose 10 μM; read-out: Growth Inhibition Percentage (GI %)
HS 578T = assay: NCI-60 anticancer screening (SRB); type: cell-based; conditions: Homo sapiens; HS 578T, breast cancer; one dose 10 μM; read-out: Growth Inhibition Percentage (GI %)
BT-549 = assay: NCI-60 anticancer screening (SRB); type: cell-based; conditions: Homo sapiens; BT-549, breast cancer; one dose 10 μM; read-out: Growth Inhibition Percentage (GI %)
MDA-MB-468 = assay: NCI-60 anticancer screening (SRB); type: cell-based; conditions: Homo sapiens; MDA-MB-468, breast cancer; one dose 10 μM; read-out: Growth Inhibition Percentage (GI %)
NCI 60 cancer cell lines = assay: NCI-60 anticancer screening (SRB), whole panel; type: cell-based, human; conditions: mean across the NCI-60 panel; one dose 10 μM
EGFR^T790M = EGFR^T790M (Homo sapiens, UniProt P00533, T790M); assay: biochemical
EGFR^L858R = EGFR^L858R (Homo sapiens, UniProt P00533, L858R); assay: biochemical
EGFR^WT = EGFR^WT (Homo sapiens, UniProt P00533); assay: EGFR kinase inhibitory assay (HTRF)
Sequence of EGFR^WT (P00533 25-1210): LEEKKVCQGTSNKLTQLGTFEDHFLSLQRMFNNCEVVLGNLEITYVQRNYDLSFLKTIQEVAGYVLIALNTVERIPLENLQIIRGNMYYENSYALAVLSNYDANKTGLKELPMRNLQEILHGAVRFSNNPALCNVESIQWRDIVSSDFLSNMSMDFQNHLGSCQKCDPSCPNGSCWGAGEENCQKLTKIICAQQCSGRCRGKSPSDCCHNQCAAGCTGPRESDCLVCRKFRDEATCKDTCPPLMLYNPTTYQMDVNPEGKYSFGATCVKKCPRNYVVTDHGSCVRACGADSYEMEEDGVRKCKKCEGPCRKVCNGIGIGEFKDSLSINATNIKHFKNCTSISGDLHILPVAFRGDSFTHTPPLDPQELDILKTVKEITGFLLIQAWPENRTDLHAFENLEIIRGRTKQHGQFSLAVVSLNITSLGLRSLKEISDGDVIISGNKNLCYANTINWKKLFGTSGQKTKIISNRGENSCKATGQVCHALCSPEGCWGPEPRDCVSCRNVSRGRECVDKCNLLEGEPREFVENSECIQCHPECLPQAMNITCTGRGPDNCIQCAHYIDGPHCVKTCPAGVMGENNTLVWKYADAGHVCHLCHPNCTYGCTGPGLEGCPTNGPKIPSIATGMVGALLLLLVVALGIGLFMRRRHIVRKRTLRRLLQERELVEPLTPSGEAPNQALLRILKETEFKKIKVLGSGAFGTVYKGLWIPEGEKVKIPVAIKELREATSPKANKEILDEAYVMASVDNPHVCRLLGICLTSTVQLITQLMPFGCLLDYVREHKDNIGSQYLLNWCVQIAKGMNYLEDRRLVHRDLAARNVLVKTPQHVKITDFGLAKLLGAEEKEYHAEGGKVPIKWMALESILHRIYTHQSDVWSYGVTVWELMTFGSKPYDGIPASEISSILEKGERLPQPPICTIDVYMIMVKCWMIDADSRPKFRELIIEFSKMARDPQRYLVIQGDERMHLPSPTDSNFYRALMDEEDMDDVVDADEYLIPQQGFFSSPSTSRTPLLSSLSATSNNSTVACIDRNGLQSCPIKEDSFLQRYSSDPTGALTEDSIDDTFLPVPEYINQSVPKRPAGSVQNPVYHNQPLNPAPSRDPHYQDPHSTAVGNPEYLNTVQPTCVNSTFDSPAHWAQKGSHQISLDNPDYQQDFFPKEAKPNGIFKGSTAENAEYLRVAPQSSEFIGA

Sequence of EGFR^T790M (P00533 25-1210 T790M): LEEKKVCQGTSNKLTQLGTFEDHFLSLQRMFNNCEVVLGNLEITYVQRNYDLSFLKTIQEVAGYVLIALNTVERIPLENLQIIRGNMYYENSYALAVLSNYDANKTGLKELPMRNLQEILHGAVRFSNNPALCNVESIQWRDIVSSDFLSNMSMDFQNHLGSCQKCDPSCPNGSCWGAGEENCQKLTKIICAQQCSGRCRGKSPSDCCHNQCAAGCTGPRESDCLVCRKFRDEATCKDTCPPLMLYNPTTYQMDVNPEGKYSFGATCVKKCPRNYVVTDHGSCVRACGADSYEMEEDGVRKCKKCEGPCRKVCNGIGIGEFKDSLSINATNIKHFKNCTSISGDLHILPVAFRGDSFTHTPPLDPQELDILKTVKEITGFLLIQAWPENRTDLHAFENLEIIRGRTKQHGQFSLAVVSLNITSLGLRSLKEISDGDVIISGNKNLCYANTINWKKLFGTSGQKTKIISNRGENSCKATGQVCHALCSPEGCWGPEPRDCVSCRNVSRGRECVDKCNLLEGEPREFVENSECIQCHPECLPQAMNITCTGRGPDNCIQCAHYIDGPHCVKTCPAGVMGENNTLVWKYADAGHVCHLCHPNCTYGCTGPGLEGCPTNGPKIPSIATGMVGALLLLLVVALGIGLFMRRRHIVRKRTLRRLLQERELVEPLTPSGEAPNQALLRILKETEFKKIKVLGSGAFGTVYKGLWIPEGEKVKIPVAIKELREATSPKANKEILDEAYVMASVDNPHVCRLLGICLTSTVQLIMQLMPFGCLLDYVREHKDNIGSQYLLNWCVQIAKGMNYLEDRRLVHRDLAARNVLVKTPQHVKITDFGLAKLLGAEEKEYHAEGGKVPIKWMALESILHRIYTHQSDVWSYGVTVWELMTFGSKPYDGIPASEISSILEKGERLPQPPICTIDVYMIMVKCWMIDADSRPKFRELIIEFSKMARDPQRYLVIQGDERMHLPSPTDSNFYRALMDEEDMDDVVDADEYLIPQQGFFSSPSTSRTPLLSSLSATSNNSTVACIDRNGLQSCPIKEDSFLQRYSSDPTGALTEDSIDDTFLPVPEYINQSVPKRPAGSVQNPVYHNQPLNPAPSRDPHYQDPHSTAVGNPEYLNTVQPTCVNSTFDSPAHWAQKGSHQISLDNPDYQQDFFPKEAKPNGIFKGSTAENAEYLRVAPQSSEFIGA
Sequence of EGFR^L858R (P00533 25-1210 L858R): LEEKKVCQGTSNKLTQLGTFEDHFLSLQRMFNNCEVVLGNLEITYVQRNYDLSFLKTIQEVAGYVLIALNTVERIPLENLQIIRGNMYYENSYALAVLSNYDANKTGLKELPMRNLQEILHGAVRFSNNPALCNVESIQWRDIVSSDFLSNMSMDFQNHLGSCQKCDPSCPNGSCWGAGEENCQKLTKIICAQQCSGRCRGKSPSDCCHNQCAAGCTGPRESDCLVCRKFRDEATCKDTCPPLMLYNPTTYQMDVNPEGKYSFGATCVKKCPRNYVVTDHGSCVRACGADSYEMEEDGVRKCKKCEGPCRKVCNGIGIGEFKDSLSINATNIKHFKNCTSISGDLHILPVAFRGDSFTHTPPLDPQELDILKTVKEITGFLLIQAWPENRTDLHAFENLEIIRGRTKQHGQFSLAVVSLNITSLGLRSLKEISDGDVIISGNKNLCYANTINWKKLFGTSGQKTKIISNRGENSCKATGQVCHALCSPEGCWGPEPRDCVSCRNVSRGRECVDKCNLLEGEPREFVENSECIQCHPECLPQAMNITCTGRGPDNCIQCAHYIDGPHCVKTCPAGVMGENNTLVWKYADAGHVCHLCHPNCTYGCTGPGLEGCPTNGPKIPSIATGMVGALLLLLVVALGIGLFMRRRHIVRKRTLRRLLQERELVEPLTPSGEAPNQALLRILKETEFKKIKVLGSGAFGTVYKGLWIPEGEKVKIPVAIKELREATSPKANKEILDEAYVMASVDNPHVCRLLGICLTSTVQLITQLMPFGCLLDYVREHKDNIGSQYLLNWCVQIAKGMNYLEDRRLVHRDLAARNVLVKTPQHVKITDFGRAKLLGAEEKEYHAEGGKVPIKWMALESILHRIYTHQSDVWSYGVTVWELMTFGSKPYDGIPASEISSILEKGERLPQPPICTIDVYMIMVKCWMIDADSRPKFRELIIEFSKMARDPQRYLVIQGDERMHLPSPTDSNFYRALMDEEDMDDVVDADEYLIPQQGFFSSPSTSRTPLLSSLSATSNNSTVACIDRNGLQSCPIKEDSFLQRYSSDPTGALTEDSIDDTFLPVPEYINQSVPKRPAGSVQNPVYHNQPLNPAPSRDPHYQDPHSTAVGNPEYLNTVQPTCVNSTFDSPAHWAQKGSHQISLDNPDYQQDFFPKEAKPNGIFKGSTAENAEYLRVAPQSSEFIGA

Compound | inhibition at 10 µM (CCRF-CEM) | inhibition at 10 µM (HL-60(TB)) | inhibition at 10 µM (MOLT-4) | inhibition at 10 µM (A549/ATCC) | inhibition at 10 µM (NCI-H322M) | inhibition at 10 µM (COLO 205) | inhibition at 10 µM (HCC-2998) | inhibition at 10 µM (HCT-15) | inhibition at 10 µM (KM 12) | inhibition at 10 µM (SW-620) | inhibition at 10 µM (MDA-MB-435) | inhibition at 10 µM (SK-MEL-28) | inhibition at 10 µM (UACC-62) | inhibition at 10 µM (OVCAR-3) | inhibition at 10 µM (OVCAR-4) | inhibition at 10 µM (OVCAR-8) | inhibition at 10 µM (NCI/ADR-RES) | inhibition at 10 µM (SK-OV-3) | inhibition at 10 µM (RXF 393) | inhibition at 10 µM (TK-10) | other results
CCOC(=O)C1=C(N)N(c2ccc(C)cc2)C2=C(C(=O)CC(C)(C)C2)C1c1ccccc1Br (racemic) [6e, (±)-Ethyl 2-amino-4–(2-bromophenyl)-7,7-dimethyl-1–(4-methylphenyl)-5-oxo-1,4,5,6,7,8-hexahydroquinoline-3-carboxylate] | 60% | 111% | 71% | 19% | < 10% | 37% | 11% | 42% | 16% | 54% | 17% | < 10% | 28% | 15% | 17% | < 10% | < 10% | < 10% | 14% | < 10% | inhibition at 10 µM (UO-31): 24%; inhibition at 10 µM (PC-3): 68%; inhibition at 10 µM (MCF7): 43%; inhibition at 10 µM (MDA-MB-231): < 10%; inhibition at 10 µM (HS 578T): < 10%; inhibition at 10 µM (BT-549): < 10%; inhibition at 10 µM (MDA-MB-468): 23%; GI % mean (NCI 60 cancer cell lines): 22%; IC50 (EGFR^T790M): 0.48 ± 0.003 µM; IC50 (EGFR^L858R): 0.37 ± 0.004 µM; IC50 (EGFR^WT): 0.176 ± 0.07 µM
CCOC(=O)C1=C(N)N(c2ccccc2)C2=C(C(=O)CC(C)(C)C2)C1c1cccc(Cl)c1Cl (racemic) [10a, (±)-Ethyl 2-amino-4–(2,3-dichlorophenyl)-7,7-dimethyl-5-oxo-1-phenyl-1,4,5,6,7,8-hexahydroquinoline-3-carboxylate] | 45% | 54% | 60% | 39% | 22% | 19% | 13% | 34% | 23% | < 10% | 13% | < 10% | 44% | 13% | 34% | 41% | 49% | 18% | 47% | < 10% | inhibition at 10 µM (UO-31): 25%; inhibition at 10 µM (PC-3): 65%; inhibition at 10 µM (MCF7): 40%; inhibition at 10 µM (MDA-MB-231): 40%; inhibition at 10 µM (HS 578T): < 10%; inhibition at 10 µM (BT-549): 31%; inhibition at 10 µM (MDA-MB-468): 52%; GI % mean (NCI 60 cancer cell lines): 35%; IC50 (EGFR^T790M): 0.532 ± 0.004 µM; IC50 (EGFR^L858R): 0.49 ± 0.003 µM; IC50 (EGFR^WT): 0.145 ± 0.03 µM
CCOC(=O)C1=C(N)N(c2ccccc2)C2=C(C(=O)CC(C)(C)C2)C1c1ccc(Cl)cc1 (racemic) [8c, (±)-Ethyl 2-amino-4–(4-chlorophenyl)-7,7-dimethyl-5-oxo-1-phenyl-1,4,5,6,7,8-hexahydroquinoline-3-carboxylate] | 85% | 94% | 99% | 66% | 35% | 118% | 57% | 85% | 82% | 72% | 78% | 56% | 78% | 48% | 71% | 39% | 74% | 56% | < 10% | 20% | inhibition at 10 µM (UO-31): 71%; inhibition at 10 µM (PC-3): 78%; inhibition at 10 µM (MCF7): 83%; inhibition at 10 µM (MDA-MB-231): 47%; inhibition at 10 µM (HS 578T): 28%; inhibition at 10 µM (BT-549): 57%; inhibition at 10 µM (MDA-MB-468): 67%; GI % mean (NCI 60 cancer cell lines): 63%; IC50 (EGFR^T790M): 0.82 ± 0.006 µM; IC50 (EGFR^L858R): 0.812 ± 0.005 µM; IC50 (EGFR^WT): 0.194 ± 0.09 µM
